Experiment [1] in a line: Inhibition of viral IRES-mediated translation in human HeLa cells after 60 mins by luciferase reporter gene assay. It is filed as functional, cell-based. The note with it: 1 h. In general terms: A reporter such as luciferase makes a cellular process visible.
A short description of experiment [2]: Inhibition of mammalian 5'-Cap- RNA dependent translation in human HeLa cells after 60 mins by luciferase reporter gene assay. Type of experiment: functional, cell-based. The note with it: 1 h.

As a reminder, the IC50 is the point on the concentration scale where inhibition reaches its midpoint. Lower therefore signals greater potency. On to `COc1cc(O)cc2cc3oc(C)cc(=O)c3c(O)c12`, for which the values for the IC50 in experiment [1] and in experiment [2] were 44 µM and 80 µM, respectively.
In the case of `COc1cc(O)cc2cc(O)c3c(=O)cc(C)oc3c12`, the IC50 in experiment [1] and in experiment [2] was more than 100 µM in each case.
Turning to `CC(C)C[C@H]1NC(=O)[C@H]2C[C@@]3([C@@]45C[C@@H]6C(=O)N[C@H](C(C)C)C(=O)N6[C@@H]4Nc4ccccc45)c4ccccc4N[C@H]3N2C1=O`, the IC50 in experiment [1] and in experiment [2] was more than 100 µM each time.
On to `COc1cc(C)c2c(OC)cc(=O)oc2c1-c1c(O)cc(C)c2c(OC)cc(=O)oc12` [DEMETHYLKOTANIN], for which the IC50 in experiment [1] and in experiment [2] was more than 100 µM throughout.

The values above are taken from ChEMBL document CHEMBL1148983, “A diketopiperazine dimer from a marine-derived isolate of Aspergillus niger” (J Nat Prod, 2004).
